Measured values: ChEMBL document CHEMBL6087464, “Design, Synthesis, and Biological Evaluation of 3,4-Dihydroisoquinolin-1(2H)-one Derivatives as Protein Arginine Methyltransferase 5 Inhibitors for the Treatment of Non-Hodgkin's Lymphoma” (J Med Chem, 2025)

How the values were obtained:
[1] = Tmax in Sprague-Dawley rat at 10 mg/kg, po by LC-MS/MS analysis; type: ADME, organism-based; settings: Sprague-Dawley, in vivo, read-out: Tmax
[2] = Cmax in Sprague-Dawley rat at 10 mg/kg, po by LC-MS/MS analysis; type: ADME, organism-based; settings: Sprague-Dawley, in vivo, read-out: Cmax
[3] = AUC (0 to t) in Sprague-Dawley rat at 10 mg/kg, po by LC-MS/MS analysis; type: ADME, organism-based; settings: Sprague-Dawley, in vivo
[4] = MRT (0 to t) in Sprague-Dawley rat at 10 mg/kg, po by LC-MS/MS analysis; type: ADME, organism-based; settings: in vivo
[5] = Oral bioavailability in Sprague-Dawley rat at 10 mg/kg by LC-MS/MS analysis; type: ADME, organism-based; settings: in vivo
[6] = Cmax in Sprague-Dawley rat at 2 mg/kg, iv by LC-MS/MS analysis; type: ADME, organism-based; settings: in vivo
[7] = AUC (0 to t) in Sprague-Dawley rat at 2 mg/kg, iv by LC-MS/MS analysis; type: ADME, organism-based; settings: in vivo
[8] = MRT (0 to t) in Sprague-Dawley rat at 2 mg/kg, iv by LC-MS/MS analysis; type: ADME, organism-based; settings: in vivo
[9] = Volume of distribution in Sprague-Dawley rat at 2 mg/kg, iv by LC-MS/MS analysis; type: ADME, organism-based; settings: in vivo
[10] = target: Voltage-gated inwardly rectifying potassium channel KCNH2 (Homo sapiens, UniProt Q12809); assay: Inhibition of human ERG; type: toxicity
Sequence of Voltage-gated inwardly rectifying potassium channel KCNH2 (Q12809 whole entry): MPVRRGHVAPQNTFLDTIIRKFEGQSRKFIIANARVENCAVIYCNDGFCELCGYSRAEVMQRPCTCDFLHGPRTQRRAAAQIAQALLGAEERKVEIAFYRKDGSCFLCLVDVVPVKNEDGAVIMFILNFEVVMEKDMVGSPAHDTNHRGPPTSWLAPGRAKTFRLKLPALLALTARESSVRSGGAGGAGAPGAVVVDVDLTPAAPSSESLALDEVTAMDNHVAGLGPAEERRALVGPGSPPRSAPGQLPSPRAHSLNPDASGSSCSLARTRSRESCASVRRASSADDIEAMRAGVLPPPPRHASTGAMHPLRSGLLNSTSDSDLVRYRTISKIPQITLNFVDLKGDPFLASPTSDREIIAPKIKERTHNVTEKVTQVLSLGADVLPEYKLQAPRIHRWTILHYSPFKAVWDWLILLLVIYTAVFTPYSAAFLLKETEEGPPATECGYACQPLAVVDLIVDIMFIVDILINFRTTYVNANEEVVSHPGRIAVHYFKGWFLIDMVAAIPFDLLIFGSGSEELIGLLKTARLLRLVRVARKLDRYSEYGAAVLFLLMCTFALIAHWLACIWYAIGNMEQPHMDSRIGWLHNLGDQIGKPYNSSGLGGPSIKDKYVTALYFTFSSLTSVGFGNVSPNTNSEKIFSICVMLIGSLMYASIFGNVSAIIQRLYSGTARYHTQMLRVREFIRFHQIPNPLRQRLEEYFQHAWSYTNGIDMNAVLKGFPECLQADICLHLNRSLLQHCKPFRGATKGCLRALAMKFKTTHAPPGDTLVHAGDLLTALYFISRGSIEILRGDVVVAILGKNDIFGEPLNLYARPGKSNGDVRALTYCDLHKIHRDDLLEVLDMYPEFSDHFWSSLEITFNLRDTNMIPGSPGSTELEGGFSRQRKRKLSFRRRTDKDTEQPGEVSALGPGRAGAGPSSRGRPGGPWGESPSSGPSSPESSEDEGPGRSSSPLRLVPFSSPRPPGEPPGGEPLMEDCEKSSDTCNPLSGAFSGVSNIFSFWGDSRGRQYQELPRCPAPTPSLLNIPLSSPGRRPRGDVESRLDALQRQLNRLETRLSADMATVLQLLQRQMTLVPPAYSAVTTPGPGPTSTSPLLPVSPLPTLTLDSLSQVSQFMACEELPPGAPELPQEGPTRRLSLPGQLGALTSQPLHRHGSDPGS

[11] = target: Protein arginine N-methyltransferase 1 (Homo sapiens, UniProt Q99873); assay: Inhibition of PRMT1 (unknown origin)
Sequence of Protein arginine N-methyltransferase 1 (Q99873 whole entry): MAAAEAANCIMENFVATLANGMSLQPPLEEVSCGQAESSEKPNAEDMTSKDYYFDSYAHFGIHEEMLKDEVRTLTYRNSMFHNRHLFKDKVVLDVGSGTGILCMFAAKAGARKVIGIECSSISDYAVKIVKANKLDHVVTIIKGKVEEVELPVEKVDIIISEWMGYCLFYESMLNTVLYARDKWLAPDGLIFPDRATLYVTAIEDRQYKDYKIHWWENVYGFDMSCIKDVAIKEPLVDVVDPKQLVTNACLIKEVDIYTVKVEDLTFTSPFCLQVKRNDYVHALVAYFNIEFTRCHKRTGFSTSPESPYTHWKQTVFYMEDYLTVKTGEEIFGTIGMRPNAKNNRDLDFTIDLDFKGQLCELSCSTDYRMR

[12] = target: Protein arginine N-methyltransferase 3 (Homo sapiens, UniProt O60678); assay: Inhibition of PRMT3 (unknown origin)
Sequence of Protein arginine N-methyltransferase 3 (O60678 whole entry): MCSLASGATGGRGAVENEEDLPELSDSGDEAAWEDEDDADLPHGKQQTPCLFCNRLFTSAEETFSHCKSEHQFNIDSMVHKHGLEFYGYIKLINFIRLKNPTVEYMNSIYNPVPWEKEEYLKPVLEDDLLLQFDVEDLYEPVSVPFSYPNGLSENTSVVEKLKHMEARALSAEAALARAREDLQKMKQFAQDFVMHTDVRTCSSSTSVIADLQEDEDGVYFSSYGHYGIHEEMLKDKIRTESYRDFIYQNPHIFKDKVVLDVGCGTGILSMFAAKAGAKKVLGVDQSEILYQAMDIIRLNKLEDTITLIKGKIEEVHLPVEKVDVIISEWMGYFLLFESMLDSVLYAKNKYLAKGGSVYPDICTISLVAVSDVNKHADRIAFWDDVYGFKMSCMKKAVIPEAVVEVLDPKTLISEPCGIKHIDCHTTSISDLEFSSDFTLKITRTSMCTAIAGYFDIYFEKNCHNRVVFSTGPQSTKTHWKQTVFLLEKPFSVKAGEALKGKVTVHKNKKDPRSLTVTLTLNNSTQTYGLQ

[13] = target: T1, Histone-arginine methyltransferase CARM1 (Homo sapiens, UniProt Q86X55); assay: Inhibition of PRMT4 (unknown origin)
T1 sequence (Q86X55 whole entry): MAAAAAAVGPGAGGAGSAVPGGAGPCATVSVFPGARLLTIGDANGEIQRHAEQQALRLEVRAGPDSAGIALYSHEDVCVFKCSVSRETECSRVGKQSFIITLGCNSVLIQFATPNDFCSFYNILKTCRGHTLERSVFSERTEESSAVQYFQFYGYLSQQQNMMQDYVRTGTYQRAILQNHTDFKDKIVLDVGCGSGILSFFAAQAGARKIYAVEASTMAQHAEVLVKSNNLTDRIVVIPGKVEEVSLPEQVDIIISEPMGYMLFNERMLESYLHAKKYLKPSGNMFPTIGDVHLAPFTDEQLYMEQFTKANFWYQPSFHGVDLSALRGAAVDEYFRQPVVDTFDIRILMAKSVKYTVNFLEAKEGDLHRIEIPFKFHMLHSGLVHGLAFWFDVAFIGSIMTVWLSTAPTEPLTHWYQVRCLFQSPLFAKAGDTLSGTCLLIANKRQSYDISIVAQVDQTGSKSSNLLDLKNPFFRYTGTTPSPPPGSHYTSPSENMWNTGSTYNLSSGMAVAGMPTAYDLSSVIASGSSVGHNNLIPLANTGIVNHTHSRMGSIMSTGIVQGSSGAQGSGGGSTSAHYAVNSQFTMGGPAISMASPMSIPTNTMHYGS

[14] = target: Protein arginine N-methyltransferase 6 (Homo sapiens, UniProt Q96LA8); assay: Inhibition of PRMT6 (unknown origin)
Sequence of Protein arginine N-methyltransferase 6 (Q96LA8 whole entry): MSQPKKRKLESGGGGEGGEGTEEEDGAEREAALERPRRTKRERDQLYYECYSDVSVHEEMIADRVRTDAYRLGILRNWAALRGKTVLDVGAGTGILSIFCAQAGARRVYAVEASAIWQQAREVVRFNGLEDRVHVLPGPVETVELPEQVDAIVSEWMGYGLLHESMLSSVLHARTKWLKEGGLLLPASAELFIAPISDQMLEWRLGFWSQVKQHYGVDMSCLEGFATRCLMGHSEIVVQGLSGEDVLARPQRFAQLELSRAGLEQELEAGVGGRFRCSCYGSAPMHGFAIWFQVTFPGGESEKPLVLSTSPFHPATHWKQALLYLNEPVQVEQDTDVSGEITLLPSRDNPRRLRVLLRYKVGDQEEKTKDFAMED

[15] = target: Protein arginine N-methyltransferase 8 (Homo sapiens, UniProt Q9NR22); assay: Inhibition of PRMT8 (unknown origin)
Sequence of Protein arginine N-methyltransferase 8 (Q9NR22 whole entry): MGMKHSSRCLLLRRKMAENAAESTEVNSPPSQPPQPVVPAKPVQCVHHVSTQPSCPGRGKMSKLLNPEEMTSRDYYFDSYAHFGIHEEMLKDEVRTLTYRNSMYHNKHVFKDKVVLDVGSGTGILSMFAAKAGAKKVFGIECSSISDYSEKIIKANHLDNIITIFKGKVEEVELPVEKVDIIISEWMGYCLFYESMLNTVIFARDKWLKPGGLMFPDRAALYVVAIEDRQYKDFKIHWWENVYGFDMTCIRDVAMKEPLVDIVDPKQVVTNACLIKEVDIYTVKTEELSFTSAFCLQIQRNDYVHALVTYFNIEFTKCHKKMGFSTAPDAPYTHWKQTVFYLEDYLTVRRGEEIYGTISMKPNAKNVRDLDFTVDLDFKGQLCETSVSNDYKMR

Z-138 [16] = assay: Induction of apoptosis in human Z138 cells assessed as viable cells at 0.4 nM incubated for 168 hrs by Annexin V-FITC/PI staining based flow cytometric analysis (reference value: 94.4 %); type: functional; settings: read-out: Activity
Z-138 [17] = assay: Induction of apoptosis in human Z138 cells assessed as early apoptotic cells at 0.4 nM incubated for 168 hrs by Annexin V-FITC/PI staining based flow cytometric analysis (reference value: 1.68 %); type: functional
Z-138 [18] = assay: Induction of apoptosis in human Z138 cells assessed as late apoptotic cells at 0.4 nM incubated for 168 hrs by Annexin V-FITC/PI staining based flow cytometric analysis (reference value: 0.37 %); type: functional
Z-138 [19] = assay: Induction of apoptosis in human Z138 cells assessed as viable cells at 2.0 nM incubated for 168 hrs by Annexin V-FITC/PI staining based flow cytometric analysis (reference value: 94.4 %); type: functional; settings: read-out: Activity
Z-138 [20] = assay: Induction of apoptosis in human Z138 cells assessed as late apoptotic cells at 2.0 nM incubated for 168 hrs by Annexin V-FITC/PI staining based flow cytometric analysis (reference value: 0.37 %); type: functional
Z-138 [21] = assay: Induction of apoptosis in human Z138 cells assessed as necrotic cells at 2.0 nM incubated for 168 hrs by Annexin V-FITC/PI staining based flow cytometric analysis (reference value: 3.54 %); type: functional
Z-138 [22] = assay: Induction of apoptosis in human Z138 cells assessed as viable cells at 10.0 nM incubated for 168 hrs by Annexin V-FITC/PI staining based flow cytometric analysis (reference value: 94.4 %); type: functional; settings: read-out: Activity
Z-138 [23] = assay: Induction of apoptosis in human Z138 cells assessed as late apoptotic cells at 10.0 nM incubated for 168 hrs by Annexin V-FITC/PI staining based flow cytometric analysis (reference value: 0.37 %); type: functional
Z-138 [24] = assay: Induction of apoptosis in human Z138 cells assessed as necrotic cells at 10.0 nM incubated for 168 hrs by Annexin V-FITC/PI staining based flow cytometric analysis (reference value: 3.54 %); type: functional
Z-138 [25] = assay: Induction of apoptosis in human Z138 cells assessed as viable cells at 50.0 nM incubated for 168 hrs by Annexin V-FITC/PI staining based flow cytometric analysis (reference value: 94.4 %); type: functional; settings: read-out: Activity
Z-138 [26] = assay: Induction of apoptosis in human Z138 cells assessed as late apoptotic cells at 50.0 nM incubated for 168 hrs by Annexin V-FITC/PI staining based flow cytometric analysis (reference value: 0.37 %); type: functional
Z-138 [27] = assay: Induction of apoptosis in human Z138 cells assessed as necrotic cells at 50.0 nM incubated for 168 hrs by Annexin V-FITC/PI staining based flow cytometric analysis (reference value: 3.54 %); type: functional
Z-138 [28] = assay: Cell cycle arrest in human Z138 cells assessed as increase in DNA content at 0.4 nM incubated for 168 hrs by RNase A/PI staining based flow cytometric analysis relative to control; type: functional
Z-138 [29] = assay: Cell cycle arrest in human Z138 cells assessed as accumulation of cells at G0/G1 phase incubated for 168 hrs by RNase A/PI staining based flow cytometric analysis; type: functional; settings: dose 0.4-50 nM
[30] = Hematological toxicity in human CD34-positive hematopoietic stem/progenitor cell supplemented with myeloid lineage assessed as reduction in cell viability incubated for 14 days by luminometric analysis; type: cell-based
[31] = Hematological toxicity in human CD34-positive hematopoietic stem/progenitor cell supplemented with erythroid lineage assessed as reduction in cell viability incubated for 14 days by luminometric analysis; type: cell-based
[32] = Hematological toxicity in human CD34-positive hematopoietic stem/progenitor cell supplemented with megakaryocytic lineage assessed as reduction in cell viability incubated for 14 days by luminometric analysis; type: cell-based

Row | Compound | Tmax [1] | Cmax [2] | AUC(0-t) [3] | MRT last [4] | bioavailability [5] | Cmax [6] | AUC(0-t) [7] | MRT last [8] | Vd [9] | IC50 [10] | IC50 [11] | IC50 [12] | IC50 [13] | IC50 [14] | IC50 [15] | viability at 0.0004 µM (Z-138 [16]) | Activity (Z-138 [17]) | Activity (Z-138 [18]) | viability at 0.002 µM (Z-138 [19]) | Activity (Z-138 [20]) | further results
1 | CC(=O)N1CCC(Nc2cc(C(=O)NC[C@H](O)CN3CCc4ccccc4C3)ncn2)CC1 [PEMRAMETOSTAT] | 78 min | 355 ng/mL | 404 ng·h/mL | 66 min | 13.5% | 1830 ng/mL | 598 ng·h/mL | 24 min | 1.4 L/kg | > 15 µM | > 10 µM | > 10 µM | > 10 µM | > 10 µM | > 10 µM | 95.6% | 1.53% | 0.33% | 95.1% | 0.31% | Activity (Z-138 [21]): 2.64%; viability at 0.01 µM (Z-138 [22]): 86%; Activity (Z-138 [23]): 1.53%; Activity (Z-138 [24]): 5.31%; viability at 0.05 µM (Z-138 [25]): 53.4%; Activity (Z-138 [26]): 7.38%; Activity (Z-138 [27]): 5.13%; Activity (Z-138 [28]): 50.9%; Activity (Z-138 [29]): Dose-dependent-effect; IC50 at 14 days [30]: 0.222 µM; IC50 at 14 days [31]: 0.043 µM; IC50 at 14 days [32]: 0.055 µM
2 | CC(=O)N1CC2(CC(Nc3cc4c(cn3)C3(CC3)CN(C[C@H](O)CN3CCc5ccccc5C3)C4=O)C2)C1 | 6 min | 894 ng/mL | 1030 ng·h/mL | 102 min | 26.7% | 1370 ng/mL | 771 ng·h/mL | 30 min | 1.4 L/kg | > 15 µM | > 10 µM | > 10 µM | > 10 µM | > 10 µM | > 10 µM | 95.3% | 1.89% | 0.44% | 62.1% | 9.25% | Activity (Z-138 [21]): 6.68%; viability at 0.01 µM (Z-138 [22]): 9.21%; Activity (Z-138 [23]): 32.4%; Activity (Z-138 [24]): 3.87%; viability at 0.05 µM (Z-138 [25]): 7.61%; Activity (Z-138 [26]): 11.4%; Activity (Z-138 [27]): 2.87%; Activity (Z-138 [28]): 52.4%; Activity (Z-138 [29]): Dose-dependent-effect; IC50 at 14 days [30]: 0.511 µM; IC50 at 14 days [31]: 0.216 µM; IC50 at 14 days [32]: 0.106 µM
